From patent publication US5739131A, “Benzene derivatives and pharmaceutical composition” (Kureha Chemical Industry Co., Ltd., priority 1994, dated 1998)
Where two headings read alike, the source gives them in different places.

How the values were obtained:
[1] = tested on: kidney disease model rats; experiment: Action to survival time of kidney diseased animals; type: in vivo, Sprague-Dawley female rats; settings: 20 mg/kg/day per os, observation eight weeks (upper limit); control 5.0
Procedure: The kidney disease model rats were prepared as in Example 115. Twenty-five groups (8 rats per group) were prepared in a manner so that there was no major difference between the groups in the serum creatinine value and the urea nitrogen value indicating renal function. The rats in each group were allowed to freely take up feed and water. […] To the rats in the control group, only water was forcedly administered per os every day. If kidney diseases are aggravated, the rat will die of uremia. Thus, the survival time was observed as comprehensive indication of the improvement effect on the kidney diseases. The observation period was eight weeks. Thus if all rats survived, the average survival time is eight weeks and it is an upper limit.

mice = experiment: Acute toxicity, single oral dose; type: in vivo
Procedure: Five-week-old ICR female mice (5 mice per group) were bred for acclimation for a week. Then, the compounds of the present invention were dissolved or dispersed in an aqueous solution of 0.5% methylcellulose, and orally administered to the mice in a single dosage (500 mg/kg).

[2] = target: T1, angiotensin II receptor subtype 1 (AT1) (Oryctolagus cuniculus, UniProt P34976); experiment: Binding assay, angiotensin II receptor subtype 1 (AT1); set-up: species or system rabbit (adrenal glands); settings: for inhibition at 100 µM: AT1, rabbit adrenal glands
T1 construct: receptor: from adrenal glands in rabbits; from tissue; host or cells: rabbit adrenal glands
T1 sequence (P34976 1-359): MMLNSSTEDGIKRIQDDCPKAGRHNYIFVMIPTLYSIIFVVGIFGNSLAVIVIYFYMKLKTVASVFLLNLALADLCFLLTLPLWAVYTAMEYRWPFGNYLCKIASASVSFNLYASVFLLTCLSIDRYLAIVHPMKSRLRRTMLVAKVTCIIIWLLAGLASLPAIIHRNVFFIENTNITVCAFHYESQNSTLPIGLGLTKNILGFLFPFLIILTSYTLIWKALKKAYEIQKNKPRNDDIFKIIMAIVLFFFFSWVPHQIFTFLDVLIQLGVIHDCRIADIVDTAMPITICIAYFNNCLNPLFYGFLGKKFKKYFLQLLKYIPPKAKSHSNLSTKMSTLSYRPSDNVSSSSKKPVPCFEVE
Procedure: (§1) In this Example, the affinity to the angiotensin II receptor subtype 1 or subtype 2 was evaluated by a binding assay in accordance with the method described in Biochem. Pharmacol., 33, 4057-4062 (1984).
(§2) Specifically, the measurement of the total binding in the presence of each drug was performed as follows:
(§3) A mixture (final volume=0.25 ml) of a drug in a given concentration (the drug was dissolved in DMSO, and diluted to a double volume with a buffer attached to a drug discovery system to prepare sample for the assay; 0.025 ml), a tracer (0.025 ml), and receptors (0.2 ml) was incubated [in the case of the angiotensin II receptor subtype 1 (AT1), at room temperature for 3 hours, and in the case of the subtype 2 (AT2), at 37° C. for 1 hour]. Then, the reaction mixture was filtered with suction (GF/C filter was used in AT1, and GF/B filter was used in AT2). The filter papers after filtration with suction (the tracer bound to the receptors) were counted by a γ-well counter (ARC-500, Aloka). The non-specific bindings were measured by repeating the above method, except that a large excess amount of a displacer was added. The specific binding of the drug in the given concentration was calculated by subtracting the non-specific binding from the total binding, respectively.
(§4) In AT1 and AT2, the percentages to inhibit the bindings of radioactive ligands (tracer) to receptors by the drugs to be tested (IC50 value of concentration to show 50% inhibition, or binding inhibition % in 100 μM) were measured, using the drugs to be tested and control drugs in the given concentration.

[3] = tested on: kidney disease model rats; experiment: Action to depress blood pressure (tail cuff method); type: in vivo, Sprague-Dawley female rats; settings: systolic, average, 20 mg/kg per os, two days from administration; control (water) 203
Procedure: The compounds of the present invention and the reference substance were forcedly administered per os to kidney disease model rats, and the action to depress blood pressure was observed. The kidney disease model rats were prepared by ligature of branches of renal artery in accordance with the conventional method, that is, the left hilum renalis of Sprague-Dawley female rats was exposed under anesthesia, and one of four secondary branches of renal artery was left unligated, while the remaining three branches were ligated, respectively. After a week, the hilum renalis (artery, vein, and ureter) of the right kidney were further ligated to thereby prepare the rats whose renal function was lowered to approximately 1/8 of the normal function. Each group consisted of eight rats. The drugs to be tested (20 mg/kg) were administered to each administering group, and only water was administered to control group. After two days from the administration, the systolic blood pressure was measured by the tail cuff method using a blood pressure measuring apparatus (UR5000; Ueda).

[4] = target: T2, angiotensin II receptor subtype 2 (AT2) (Bos taurus, UniProt G5E6F7); experiment: Binding assay, angiotensin II receptor subtype 2 (AT2); set-up: species or system bovine (cerebellar cortex); settings: read-out: Binding inhibition % in 100 μm, AT2
T2 construct: receptor: from cerebellar cortex in bovine; from tissue; host or cells: bovine cerebellar cortex
T2 sequence (G5E6F7 1-362): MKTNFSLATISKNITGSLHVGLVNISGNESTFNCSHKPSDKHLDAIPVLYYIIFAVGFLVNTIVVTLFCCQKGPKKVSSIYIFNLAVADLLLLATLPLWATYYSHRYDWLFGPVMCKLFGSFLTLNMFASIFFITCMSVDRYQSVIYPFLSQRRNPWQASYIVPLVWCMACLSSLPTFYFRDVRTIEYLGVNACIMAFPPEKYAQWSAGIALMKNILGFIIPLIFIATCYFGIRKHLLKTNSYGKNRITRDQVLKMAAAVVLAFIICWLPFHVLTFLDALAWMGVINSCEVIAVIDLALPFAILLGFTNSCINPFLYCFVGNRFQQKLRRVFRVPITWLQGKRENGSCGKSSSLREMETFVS
Procedure: as §1, §2, §3, §4
receptor: from cerebellar cortex in bovine
tracer: ^125 ITyr^4angiotensin II
control drug: angiotensin II (human)
(displacer): angiotensin II (human)

[5] = tested on: kidney disease model rats; experiment: Renal function indicatory value (action to kidney diseases); type: in vivo, Sprague-Dawley female rats; settings: 20 mg/kg/day per os, two weeks; for Creatinine clearance: 24 hours urine, control 0.20; for Creatinine / Urea nitrogen: serum; for Creatinine: control 2.0; for Urea nitrogen: control 100
Procedure: The kidney disease model rats were prepared as in Example 115. Twenty-five groups (8 rats per group) were sleeked in a manner so that there were no major differences between each group in the serum creatinine value and the urea nitrogen value indicating renal function. The rats in each group were allowed to freely take up feed and water. […] To the rats in the control group, only water was forcedly administered per os every day. After two weeks, 0.2 ml of blood was collected from the carotid artery of the rat under anesthesia, and centrifuged to obtain serum. Using 25 μl of the serum, serum creatinine (Scr) was measured by a creatinine analytical instrument (Beckman). Using 10 μl of the serum, urea nitrogen (BUN) was measured by a BUN analytical instrument (Beckman). Creatinine clearance was evaluated as follows:
After serum creatinine measurement, rats were placed in urinary metabolic cages for 24 hours to collect urine. Urinary creatine concentration (Ucr) was measured by a creatinine analytical instrument, and total volume of urination (Uvol) was also measured. Creatinine clearance (CCr) was calculated by the following formula: [formula]

[6] = 100 μM, AT2, bovine cerebellar cortex, 37° C. 1 hour
[7] = tracer 3H angiotensin II, room temperature 3 hours, read-out: IC50 AT1
[8] = mice, single oral 500 mg/kg, observed for 6 days, 5 per group

## CCCCC(=O)N(Cc1ccc(C(=O)O)cc1)c1cc(C(=O)N2CCOCC2)ccn1 [Compound No. 467, 2-N-[[(4-carboxyphenyl)methyl]valeramido]isonicotinic acid morpholide]
[1]
  Average survival time: 7.0 weeks
mice; mouse, in vivo, po, 500 mg/kg
  Number of deaths/number of survivals: 0/5
[2]
  inhibition at 100 µM: 16%
[3]
  Blood pressure: 200 mmHg
[4]; [6]
  inhibition at 100 µM: 0%
[5]
  Creatinine clearance: 0.25 mL/min
  Creatinine: 1.8 mg/dL
  Urea nitrogen: 74 mg/dL

## CCCCCN(Cc1ccc(C(=O)O)cc1)c1cc(C(=O)N2CCOCC2)ccn1 [Compound No. 535, 2-[N-n-amyl-N-(4-carboxyphenyl)methyl]aminoisonicotinic acid morpholide]
[1]
  Average survival time: 7.6 weeks
mice; mouse, in vivo, po, 500 mg/kg
  Number of deaths/number of survivals: 0/5
[2]; [7]
  IC50: 3.8 µM
[3]
  Blood pressure: 195 mmHg
[4]; [6]
  inhibition at 100 µM: 0%
[5]
  Creatinine clearance: 0.38 mL/min
  Creatinine: 1.5 mg/dL
  Urea nitrogen: 72 mg/dL

## CCCCC(=O)Nc1ccc(C(=O)N2CCOCC2)cc1NCc1ccc(-c2ccccc2-c2nnn[nH]2)cc1 [Compound No. 585, 3-[[2'-(1H-tetrazol-5-yl)biphenyl-4-yl]methylamino]-4-valeramidobenzoic acid morpholide]
[1]
  Average survival time: 7.3 weeks
mice; [8]
  Number of deaths/number of survivals: 0/5
[2]; [7]
  IC50: 1.7 µM
[3]
  Blood pressure: 196 mmHg
[4]; [6]
  inhibition at 100 µM: 0%
[5]
  Creatinine clearance: 0.35 mL/min
  Creatinine: 1.6 mg/dL
  Urea nitrogen: 72 mg/dL

## CCCCC(=O)Nc1ccc(C(=O)N(CC)CC)cc1NCc1ccc(-c2ccccc2-c2nn[nH]n2)cc1 [Compound No. 586, [3-[[2'-(1H-tetrazol-5-yl)biphenyl-4-yl]methylamino]-4-valeramido]benzoic acid diethylamide]
[1]
  Average survival time: 6.8 weeks
mice; [8]
  Number of deaths/number of survivals: 0/5
[2]
  IC50: 1.2 µM
[3]
  Blood pressure: 198 mmHg
[4]
  inhibition at 100 µM: 0%
[5]
  Creatinine clearance: 0.33 mL/min
  Creatinine: 1.7 mg/dL
  Urea nitrogen: 76 mg/dL

## CCCCC(=O)Nc1ccc(C(=O)N2CCOCC2)cc1OCc1ccc(-c2ccccc2-c2nnn[nH]2)cc1 [Compound No. 587, 3-[[2'-(1H-tetrazol-5-yl)biphenyl-4-yl]methyloxy]-4-valeramidobenzoic acid morpholide]
[1]
  Average survival time: 7.0 weeks
mice; [8]
  Number of deaths/number of survivals: 0/5
[2]; [7]
  IC50: 7.9 µM
[3]
  Blood pressure: 201 mmHg
[4]; [6]
  inhibition at 100 µM: 0%
[5]
  Creatinine clearance: 0.34 mL/min
  Creatinine: 1.7 mg/dL
  Urea nitrogen: 77 mg/dL

## CCCCC(=O)N(Cc1ccc(-c2ccccc2-c2nn[nH]n2)cc1)c1cc(C(=O)N2CCOCC2)ccc1N(C)C [Compound No. 591, 4-dimethylamino-3-N-[2'-[(1H-tetrazol-5-yl)biphenyl-4-yl]methyl]valeramidobenzoic acid morpholide]
[1]
  Average survival time: 7.3 weeks
mice; mouse, in vivo, po, 500 mg/kg
  Number of deaths/number of survivals: 0/5
[2]
  inhibition at 100 µM: 35%
[3]
  Blood pressure: 199 mmHg
[4]; [6]
  inhibition at 100 µM: 0%
[5]
  Creatinine: 1.6 mg/dL
  Urea nitrogen: 76 mg/dL

## CCCCC(=O)N(Cc1ccc(-c2ccccc2-c2nn[nH]n2)cc1)c1cc(C(=O)N2CCOCC2)ccc1NC(C)=O [Compound No. 592, 4-acetamido-3-N-[[[2'-(1H-tetrazol-5-yl)biphenyl-4-yl]methyl]valeramido]benzoic acid morpholide]
[1]
  Average survival time: 7.0 weeks
mice; mouse, in vivo, po, 500 mg/kg
  Number of deaths/number of survivals: 0/5
[2]; [7]
  IC50: 4.9 µM
[3]
  Blood pressure: 202 mmHg
[4]; [6]
  inhibition at 100 µM: 0%
[5]
  Creatinine clearance: 0.33 mL/min
  Creatinine: 1.7 mg/dL
  Urea nitrogen: 76 mg/dL

## CCCCCN(C)c1c(NCc2ccc(-c3ccccc3-c3nn[nH]n3)cc2)cc(C(=O)N2CCOCC2)cc1NC(=O)C(c1ccccc1)c1ccccc1 [Compound No. 593, 4-(N-n-amyl-N-methyl)amino-5-(diphenylacetamido)-3-[[2'-(1H-tetrazol-5-yl)biphenyl-4-yl]methylamino]benzoic acid morpholide]
[1]
  Average survival time: 7.1 weeks
mice; mouse, in vivo, po, 500 mg/kg
  Number of deaths/number of survivals: 0/5
[2]
  inhibition at 100 µM: 36%
[3]
  Blood pressure: 200 mmHg
[4]; [6]
  inhibition at 100 µM: 0%
[5]
  Creatinine clearance: 0.31 mL/min
  Creatinine: 1.6 mg/dL
  Urea nitrogen: 80 mg/dL

## CCCCC(=O)Nc1ccc(C(=O)N2CCOCC2)cc1N(Cc1ccc(-c2ccccc2-c2nn[nH]n2)cc1)Cc1ccc(-c2ccccc2-c2nn[nH]n2)cc1 [Compound No. 594, 3-[di-[2'-(1H-tetrazol-5-yl)biphenyl-4-yl]methylamino]-4-valeramidobenzoicacid morpholide]
[1]
  Average survival time: 6.5 weeks
mice; [8]
  Number of deaths/number of survivals: 0/5
[2]; [7]
  IC50: 32 µM
[3]
  Blood pressure: 194 mmHg
[4]; [6]
  inhibition at 100 µM: 0%
[5]
  Creatinine clearance: 0.30 mL/min
  Creatinine: 1.7 mg/dL
  Urea nitrogen: 77 mg/dL
